Consider 1 compound from publication PMC7395048 (Archives of Toxicology, 2020).

Data set [1] is described as follows: In vitro incubations with pooled human liver microsomes. The protocol:
The test concentrations were chosen to enable adequate analysis of Michaelis–Menten kinetics. After one-min pre-incubation of this solution at 37 °C, the reactions were initiated by addition of human liver microsomes giving a final concentration of 0.5 mg/ml microsomal protein and incubations were performed in a shaking water bath at 37 °C for 40 min. Control incubations were performed in the absence of NADPH which was replaced with Tris–HCl. The reactions were terminated by addition of 40-µl ice-cold acetonitrile. Samples were kept on ice for at least 20 min and then centrifuged at 18,000g for 5 min at 4 °C to precipitate microsomal proteins.
Vmax and Km were obtained by fitting the data to Eq. (2) in GraphPad Prism 5.0 (GraphPad Software Inc.). Data were collected from three independent experiments and each data point is presented as the mean value ± SD.

Data set [2] concerns QTc interval in the human ECG. The data set can be described thus: PBK modeling-based reverse dosimetry and BMD analysis of predicted QTc dose-response. To be noted: 70 kg.
Experimental: Based on this consideration, PBK modeling-based reverse dosimetry was applied to translate in vitro concentration–response data on FPDc obtained from the hiPSC-CM using the MEA to in vivo dose–response curves for QTc. […] The same procedure was performed for each of the in vitro concentrations tested in the MEA. Thus, the entire in vitro concentration–response curve was translated to a predicted in vivo dose–response curve.
The benchmark response (BMR) was defined as a 10% change compared to the control. […] In short, the continuous data from the predicted in vivo dose–response curves were fitted to a set of models including the Exponential, Hill, Inverse Exponential, and the Log-Normal Family models. […] Weighting was based on the model’s Akaike's Information Criterion (AIC) values where models with lower AIC values get a larger weight. 200 bootstrap data sets were run to calculate the final BMD confidence intervals from model averaging.

In general, Km refers to the concentration of substrate that gives half-maximal velocity. Regarding `CCC(=O)C(CC(C)N(C)C)(c1ccccc1)c1ccccc1` (stereo not shown) [methadone], in data set [1] (human), the Km at 40 min was found to be 275 ± 26.8 µM. For the same compound, the “EMDP formation from methadone” value in data set [1] (methadone as substrate) is recorded as “No EMDP formation was measured”. Also, the BMDL10 is given as 109 mg/day in data set [2] (fu,p 0.034, model averaging); 66.7 mg/day in data set [2] (fu,p 0.055, model averaging); 24.2 mg/day in data set [2] (fu,p 0.15, model averaging); 16.5 mg/day in data set [2] (fu,p 0.22, model averaging). For the same compound, the BMDU10 was 509 mg/day in data set [2] (fu,p 0.034, model averaging); 316 mg/day in data set [2] (fu,p 0.055, model averaging); 117 mg/day in data set [2] (fu,p 0.15, model averaging); 79.5 mg/day in data set [2] (fu,p 0.22, model averaging).
